# In patent US11807627B2, “Morphic forms of complement factor D inhibitors” (priority 2018, dated 2023):
# Where two headings read alike, the source gives them in different places.
# Experiments:
# Format in all cases: physicochemical
# Thermal stability by TGA = details: for Thermal events from SSCI report: mass/weight loss: up to 250° C.
# Description: TG analyses were performed using a TA Instruments Q5000 IR thermogravimetric analyzer. Temperature calibration was performed using nickel and Alumel™. Each sample was placed in an aluminum pan. The sample was hermetically sealed, the lid pierced, then inserted into the TG furnace. The furnace was heated under nitrogen. The method code on the thermogram is an abbreviation for the start and end temperature as well as the heating rate; e.g., […] means “from 25° C. to 350° C., at 10° C./min”.
# [1] = Thermogravimetric/differential thermal analysis (TG/DTA)
# Description: Approximately, 5 mg of material was weighed into an open aluminium pan and loaded into a simultaneous thermogravimetric/differential thermal analyzer (TG/DTA) and held at room temperature. The sample was then heated at a rate of 10° C./min from 20° C. to 400° C. during which time the change in sample weight occurred was recorded along with any differential thermal events (DTA). Nitrogen was used as the purge gas at a flow rate of 300 cm^3/min.
# [2] = Hygroscopicity / dynamic vapour sorption (DVS); details: for DVS: hygroscopicity: Table 27A
# Description: (§1) Approximately, 10-20 mg of sample were placed into a mesh vapour sorption balance pan and loaded into a DVS Intrinsic dynamic vapour sorption balance by Surface Measurement Systems. The sample was subjected to a ramping profile from 40-90% relative humidity (RH) at 10% increments, maintaining the sample at each step until a stable weight had been achieved (dm/dt 0.004%, minimum step length 30 minutes, maximum step length 500 minutes) at 25° C. After completion of the sorption cycle, the sample was dried using the same procedure to 0% RH and then a second sorption cycle back to 40% RH. Two cycles were performed. The weight change during the sorption/desorption cycles were plotted, allowing for the hygroscopic nature of the sample to be determined. XRPD analysis was then carried out on any solid retained.
# as §1, with “Approximately, 10” for “Approximately, 10-20”, “sample was” for “sample were”, “a DVS-1” for “a DVS Intrinsic”
# [3] = Solubility in selected media (FaSSIF, FeSSIF, FaSSGF, pH 4 citrate, pH 6.8 phosphate)
# Description: Solubility within selected media (FaSSIF, FeSSIF, FaSSGF, pH 4 citrate and pH 6.8 phosphate) was measured to be <0.01 mg/mL.
# The pH 4 citrate buffer was prepared by dissolving sodium citrate (987 mg) and citric acid (1.28 g) in 100 mL H2O. The pH was adjusted to 4. The pH 6.8 phosphate buffer was prepared by dissolving dibasic sodium phosphate dihydrate (873 mg) and monobasic sodium phosphate monohydrate (708 mg) in 100 mL H2O. The pH was adjusted to 6.8. The FaSSIF media was prepared with sodium hydroxide (108 mg), sodium chloride (1.55 g) and monobasic sodium phosphate dihydrate (1.12 g) in H2O (0.25 L) and the pH adjusted to 6.5. FaSSIF/FeSSIF/FaSSGF (0.56 g) was dissolved in the buffer and mixed until opalescent. The FeSSIF media was prepared by dissolving sodium hydroxide (1.01 g), sodium chloride (2.96 g) and glacial acetic acid (2.97 g) in H2O (0.25 L) and the pH adjusted to pH 5. FaSSIF/FeSSIF/FaSSGF (2.81 g) was dissolved in the buffer and thoroughly mixed. The FaSSGF media was prepared by dissolving FaSSIF/FeSSIF/FaSSGF (0.06 g) in a solution of sodium chloride (2.00 g) dissolved in H2O (1 L) and mixing thoroughly.
# [4] = Storage stability of Compound 3 forms (80° C., 40° C./75% RH, 25° C./60% RH, ambient); details: for 1 week stability: 40° C./75% RH XRPD (uncapped): WC = weakly crystalline
# Description: No changes by XRPD or HPLC purity were observed when the material was stored at 40° C./75% RH, 80° C. or under ambient conditions.
# [5] = Differential scanning calorimetry (DSC); details: for DSC: Melting: onset; for DSC: Melting / DSC: Melting (peak): Table 27A
# Description: DSC was performed using a TA Instruments 2920 or Q2000 differential scanning calorimeter. Temperature calibration was performed using NIST-traceable indium metal. The sample was placed into an aluminum DSC pan, covered with a lid, and the weight was accurately recorded. A weighed aluminum pan configured as the sample pan was placed on the reference side of the cell. The method code on the thermogram is an abbreviation for the start and end temperature as well as the heating rate; e.g., -30-250-10 means “from −30° C. to 250° C., at 10° C./min”. The following table summarizes the abbreviations used in each image for pan configurations: […]
structure (smiles),measurement,setting,value
CC(=O)c1nn(CC(=O)N2[C@H](C(=O)Nc3nc(Br)ccc3C)C[C@@]3(C)C[C@@H]23)c2ccc(-c3cnc(C)nc3)cc12 [Compound 3 Form A],Thermal events from SSCI report: mass/weight loss,Thermal stability by TGA,0.8% mass loss
same,Onset Temp: Melting,[1]; Table 22B,"139.4, melting ° C."
same,Onset Temp: decomposition,[1]; Table 22B,209.0 °C
same,Onset Temp: melting (second event),[1]; Table 22B,"153.9, ° C."
same,TG/DTA: Melting,[1]; Table 27A,Melting 139.4 °C
same,TG/DTA: decomposition,[1]; Table 27A,decomposition 209 °C
same,TG/DTA: melting (second event),[1]; Table 27A,"melting 153.9° C.,"
same,Mass loss within the TG trace,[1]; up to 250° C.,0.8%
same,DVS analysis: hygroscopic nature,[2]; 25° C.,hygroscopic
same,DVS: hygroscopicity,[2],Hygroscopic
same,DVS total uptake,"[2]; at 90% RH, 25° C.",6.9%
same,DVS uptake as equivalents of water,[2]; at / up to 90% RH,2.5 equiv. water
same,DVS sharp uptake,[2]; between 50-60% RH,3.0%
same,DVS uptake as equivalents of water,[2]; between 50-60% RH,1.0 equiv. water
same,XRPD Results after stirring in media,[3]; FaSSGF,Form A
same,solubility,[3]; FaSSGF,<10 µg/mL
same,solubility,"[3]; FaSSGF, fassgf or other biorelevant, thermodynamic from solid, read-out: Solubility: HPLC Result",< 10 µg/mL
same,XRPD Results after stirring in media,[3]; FaSSIF,Form A
same,solubility,[3]; FaSSIF,<10 µg/mL
same,solubility,"[3]; FaSSIF, pH 6.5, fassif, thermodynamic from solid, read-out: Solubility: HPLC Result",< 10 µg/mL
same,XRPD Results after stirring in media,[3]; FeSSIF,Form A
same,solubility,[3]; FeSSIF,<10 µg/mL
same,solubility,"[3]; FeSSIF, pH 5, fessif, thermodynamic from solid, read-out: Solubility: HPLC Result",< 10 µg/mL
same,solubility,"[3]; aqueous buffer, thermodynamic from solid, FaSSIF, FeSSIF, FaSSGF, pH 4 citrate and pH 6.8 phosphate, read-out: Solubility within selected media",< 10 µg/mL
same,solubility,"[3]; aqueous buffer, thermodynamic from solid, pH 6.8 phosphate buffer, read-out: Solubility: HPLC Result",< 10 µg/mL
same,solubility,[3]; pH 4,Not detected
same,Solubility: HPLC Result,[3]; pH 4 citrate buffer,Not detected
same,XRPD Results after stirring in media,[3]; pH 4 citrate buffer,Form A
same,XRPD Results after stirring in media,[3]; pH 6.8 phosphate buffer,Form A
same,solubility,"[3]; pH 6.8 phosphate buffer, pH 6.8, aqueous buffer, thermodynamic from solid, read-out: Solubility",< 10 µg/mL
same,1 week stability: 40° C./75% RH HPLC (uncapped),[4]; 1 week,99.7% (by % (by relative area)
same,1 week stability: 80° C. HPLC (capped),[4]; 1 week,99.7% (by % (by relative area)
same,1 week stability: 80° C. XRPD (capped),[4]; 1 week,Form A
same,1 week stability: 40° C./75% RH XRPD (uncapped),[4]; 1 week,WC Form A
same,Stability: form by XRPD after storage,"[4]; 25° C./60% RH, capped vial",Form A
same,Stability: form by XRPD after storage,[4]; 40° C./75% RH (uncapped),predominantly Form A
same,Stability: purity change after storage,[4]; 40° C./75% RH (uncapped),no purity change
same,Stability: form by XRPD after storage (repeat study),"[4]; 40° C./75% RH, capped and uncapped vials",weakly crystalline (WC) Form A
same,Stability: purity by HPLC (relative area),[4]; 80° C.,no reduction in purity
same,Thermal events from SSCI report: Melt,[5]; SSCI report,Melt 133-150 °C
same,DSC: Melting,[5],Melting 138 °C (peak
same,DSC: Melting (peak),[5],151.4° C.)
"CC(=O)c1nn(CC(=O)N2[C@H](C(=O)Nc3nc(Br)ccc3C)C[C@@]3(C)C[C@@H]23)c2ccc(-c3cnc(C)nc3)cc12 [Compound 3, (1R,3S,5R)-2-(2-(3-acetyl-5-(2-methylpyrimidin-5-yl)-1H-indazol-1-yl)acetyl)-N-(6-bromo-3-methylpyridin-2-yl)-5-methyl-2-azabicyclo[3.1.0]hexane-3-carboxamide]",Thermal Stability by TGA,Thermal stability by TGA; to 250° C.,~0.8% wt loss to 250 °C
same,Hygroscopicity,[2],Non-hygroscopic
same,Hygroscopicity: moisture uptake,[2]; at 60% RH,< 5%
CC(=O)c1nn(CC(=O)N2[C@H](C(=O)Nc3nc(Br)ccc3C)C[C@@]3(C)C[C@@H]23)c2ccc(-c3cnc(C)nc3)cc12 [Form B],Thermal events from SSCI report: mass/weight loss,Thermal stability by TGA,1.3%
same,Onset Temp: Melting,[1]; Table 22B,Melting 179.8 °C
same,TG/DTA: Melting,[1]; Table 27A,Melting 178.4 °C
same,DVS analysis: hygroscopic nature,[2]; 25° C.,slightly hygroscopic
same,DVS: hygroscopicity,[2],Slightly hygroscopic
same,DVS uptake as equivalents of water,[2]; at / up to 90% RH,0.1 equiv. water
same,DVS uptake,[2]; up to 90% RH,0.26 wt %
same,solubility,[3]; FaSSGF,<10 µg/mL
same,solubility,[3]; FaSSIF,<10 µg/mL
same,solubility,[3]; FeSSIF,<10 µg/mL
same,Solubility in selected media,"[3]; pH 4, pH 6.8, FaSSIF, FeSSIF and FaSSGF media",poorly soluble
same,1 week stability: 40° C./75% RH HPLC (uncapped),[4]; 1 week,99.8% (by % (by relative area)
same,1 week stability: 80° C. HPLC (capped),[4]; 1 week,99.9% (by % (by relative area)
same,1 week stability: 80° C. XRPD (capped),[4]; 1 week,Form B
same,1 week stability: Ambient conditions HPLC (capped),[4]; 1 week,99.8% (by % (by relative area)
same,1 week stability: Ambient conditions XRPD (capped),[4]; 1 week,Form B
same,1 week stability: 40° C./75% RH XRPD (uncapped),[4]; 1 week,Form B
same,Stability: changes by XRPD or HPLC purity,"[4]; stored at 40° C./75% RH, 80° C. or under ambient conditions",No changes
same,Thermal events from SSCI report: thermal event temperature,"[5]; SSCI report, event not named",~176 °C
same,DSC: Melting,[5],Melting 178.4 °C
same,DSC: Melting (peak),[5],(peak 186.3° C.)
